Source: US20100028278A1, “USE OF CHROMAN-4-ONE DERIVATIVES” (Merck Patent Gesellschaft MIT Beschrankter Haftung, priority 2007, published 2010)

Test system: Normal human adipocytes
Experiment: Assessment of lipid synthesis in adipocytes in suspension (anti-cellulitis efficacy test)
Assay type: cell-based
Conditions: radioactively labelled acetate (2-C14) into lipids, versus comparative sample
Protocol: Normal human adipocytes are isolated starting from biopsies (plastic surgery). Immediately after receipt, the samples are incubated for 30 min at 37° C. in the presence of collagenase (supplied by Sigma). The suspension of adipocytes is then rinsed and diluted three-fold in the culture medium, The culture medium is formed, for example, from the following: • 1.87 mg/ml of bicarbonate (supplied by Life Technologies), • 25 IU/ml/25 μg/ml of penicillin/streptomycin (supplied by Life Technologies), • 2 mM of glutamine (supplied by Life Technologies), • 100% (vol./vol.) MEM (supplied by Merck Eurolab) and • 0.5% (wt./vol.) bovine albumin (supplied by Sigma).
The adipocytes in suspension are incubated for 4 h at 37° C. in the presence of various concentrations of a compound of the formula I. […]
After incubation for 4 h, the lipids are extracted by the procedure described by Bligh and Dyer, Can. J. Biochem. Physiol., 37, 922 (1959), evaporation is carried out under nitrogen, and the introduced radioactivity is quantified by liquid scintillation (reference liquid scintillation instrument LKB 1210, supplied by Rackbeta).
Any interaction between the radioactively labelled acetate and a compound of the formula I is evaluated in order to confirm the specificity of the labelling by incubating the highest concentration of the compound of the formula I with acetate alone.

`C/C=C/C/C=C/CCC(=O)[C@H]1O[C@H]1C(N)=O` [Cerulin] was tested, and the “inhibition of the incorporation of acetate” value was 95%.
